The test system of experiment [1] is parental HCT116 cells. The experiment can be described thus: Cell viability assay (CellTiterGlo, 4 days), parental HCT116. The format is cell-based, human.
The subject of experiment [2] is parental HCT116 cells. The experiment can be described thus: Flow cytometry cell cycle profiles, parental HCT116. Conditions: 1 and 2 μM AZ3146, 24 hours. It counts as cell-based, human. Here is the method: Cells were fixed overnight at −20° C. in 70% ethanol, washed in PBS, then incubated in 10 μg/ml propidium iodide and 0.5% RNase (Sigma) for 30 min and then analysed using LSRII flow cytometer (BD Biosciences).
For orientation: Flow cytometry measures light scatter and fluorescence of single cells or particles in a stream.

The test system of experiment [3] is parental HCT116 cells. Put plainly: Time-lapse microscopy, time in mitosis, parental HCT116. The format is cell-based, human. Here is the method:
For analysis by immunofluorescence, cells were fixed in 1% formaldehyde for 5 min at room temperature, quenched in glycine, washed in PBS-Triton X-100 (0.1% PBS-T) and incubated for 1 hour in primary antibodies in PBS-T: MAD2 (Bethyl Laboratories Inc., A300-301A), CDC2020 (Millipore, MAB3775), MPS1 (Millipore, 05-682), MPS1 pT33pS37 (Life Technologies, 44-1325G) and ACA (ImmunoVision, HST-0100). After PBS-T washes, cells were incubated with fluorescent-conjugated secondary antibodies (Life Technologies), stained with DAPI (Life Technologies) and mounted onto slides with Vectashield (Vector Labs). Images were acquired using a Zeiss LSM 710 confocal microscope and processed using Velocity 3D Image analysis software (PerkinElmer). Time-lapse micrscopy was performed in 96-well Ibidi plate (Thistle Scientific) using a Diaphot inverted microscope (Nikon), in a humidified CO2 chamber at 37° C., using a motorized stage (Prior Scientific), controlled by Simple PCI software (Compix).

The subject of experiment [4] is HCT116 cells containing MPS1 p.M600T. Put plainly: Cell viability assay, HCT116 NvR clones with MPS1 p.M600T (NvR1 etc.). Conditions: for Resistance conferred by mutation p.M600T: summary table of inhibitors vs mutations; for GI50: Homo sapiens.
The subject of experiment [5] is HCT116 cells containing MPS1 p.C604W. The experiment can be described thus: Cell viability assay, HCT116 NvR clones with MPS1 p.C604W (NvR12 etc.). To be noted: for resistance / potency in cell viability assay vs parental: p.C604W (NvR12); for GI50: Homo sapiens; for Resistance conferred by mutation p.C604W: summary table of inhibitors vs mutations.
For experiment [6], the target named is T1, recombinant full-length MPS1 p.C604W (Homo sapiens, UniProt P33981, C604W).
T1 construct: made in house; host or cells: Sf9 insect cells (baculovirus, modified pFastBac1)
T1 sequence (P33981 1-857 C604W): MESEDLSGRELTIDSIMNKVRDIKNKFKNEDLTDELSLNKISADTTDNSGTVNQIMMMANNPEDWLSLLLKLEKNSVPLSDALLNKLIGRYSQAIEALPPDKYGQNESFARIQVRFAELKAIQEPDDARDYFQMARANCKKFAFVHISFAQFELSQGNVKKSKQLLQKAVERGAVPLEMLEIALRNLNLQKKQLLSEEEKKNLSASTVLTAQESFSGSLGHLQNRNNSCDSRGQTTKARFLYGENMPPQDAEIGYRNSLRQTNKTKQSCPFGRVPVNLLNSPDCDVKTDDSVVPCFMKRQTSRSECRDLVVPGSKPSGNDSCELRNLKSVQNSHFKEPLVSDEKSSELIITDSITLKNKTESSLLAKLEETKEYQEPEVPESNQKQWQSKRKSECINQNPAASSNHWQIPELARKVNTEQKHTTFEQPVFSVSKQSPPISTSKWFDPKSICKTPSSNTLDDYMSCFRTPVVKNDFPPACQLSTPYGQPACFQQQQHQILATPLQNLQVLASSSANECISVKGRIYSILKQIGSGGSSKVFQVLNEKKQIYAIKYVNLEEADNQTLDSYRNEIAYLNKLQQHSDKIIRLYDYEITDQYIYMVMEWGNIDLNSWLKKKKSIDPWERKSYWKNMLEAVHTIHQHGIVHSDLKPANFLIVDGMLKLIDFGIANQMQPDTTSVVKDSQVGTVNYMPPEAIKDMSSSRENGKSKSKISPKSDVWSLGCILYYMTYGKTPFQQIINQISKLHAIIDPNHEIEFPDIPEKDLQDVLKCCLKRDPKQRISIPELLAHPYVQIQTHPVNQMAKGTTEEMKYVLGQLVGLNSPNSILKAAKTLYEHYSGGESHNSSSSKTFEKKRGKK
Put plainly: Recombinant MPS1 kinase assay (electrophoretic mobility shift), p.C604W. It counts as biochemical. Conditions: for IC50: C604W, mean ± SD, quadruplicate. Here is the method:
(§1) For high ATP concentration assays, 1 mM ATP was used. An ECHO® 550 (Labcyte Inc) acoustic dispenser was used to generate duplicate 8 point dilution curves directly into 384-well low-volume polystyrene assay plates (Corning Life Sciences). The reaction was carried out for 90 min at room temperature.

The target in experiment [7] is T2, recombinant full-length wild-type MPS1 (Homo sapiens, UniProt P33981).
T2 construct: For protein expression of full-length MPS1 proteins, Sf9 insect cells were grown at 27° C; made in house; host or cells: Sf9 insect cells (baculovirus, modified pFastBac1)
T2 sequence (P33981 1-857): T1 sequence (P33981 1-857 C604W) with W604C
The experiment can be described thus: Recombinant MPS1 kinase assay (electrophoretic mobility shift), WT. It counts as biochemical. Conditions: mean ± SD, quadruplicate. Here is the method: as §1

The mark [8] stands for this setting: ATP at Km, read-out: IC50 values at ATP Km.
The mark [9] stands for this setting: IC50 values at 1 mM ATP, 1 mM ATP.

Changes are numbered by the printed parent chain. Like-named read-outs stand apart in the source and are kept apart here.

Regarding `COc1cc(OC2CCN(C)CC2)ccc1Nc1ncc2c(n1)n(C1CCCC1)c(=O)n2C` [AZ3146], the “lethal concentration in cell viability assays” value in the experiment on parental HCT116 cells [1] stood at 2 µM. Moreover, in the experiment with parental HCT116 cells [1] (Homo sapiens, HCT-116), the GI50 is 0.8 µM. For the same compound, the “effect on cell cycle profile” value in the experiment with parental HCT116 cells [2] is “G1 and G2/M peaks are increasingly abolished”. For the same compound, the “time to exit mitosis” value in the experiment with parental HCT116 cells [3] (2 μM AZ3146) is reported as 10 min.
On to `Cc1ncc(-c2ccc(Nc3cc4c(cn3)cc(-c3cnn(C)c3)n4C(=O)OC(C)C)c(F)c2)n1C` [Compound 3, isopropyl 6-(4-(1,2-dimethyl-1H-imidazol-5-yl)-2-fluorophenylamino)-2-(1-methyl-1H-pyrazol-4-yl)-1H-pyrrolo[3,2-c]pyridine-1-carboxylate], for which the “fold resistance in cell viability assay vs parental” value in experiment [4] (p.M600T (NvR1)) is approximately 2 fold. For the same compound, in experiment [4], the “Resistance conferred by mutation p.M600T” value is on record as “R”. Besides, in experiment [5], the “resistance / potency in cell viability assay vs parental” value was “more potent”.
For the compound `CCc1cccc(CC)c1NC(=O)c1nn(C)c2c1CCc1cnc(Nc3ccc(C(=O)NC4CCN(C)CC4)cc3OC(F)(F)F)nc1-2` [NMS-P715], the GI50 worked out at 2.54 µM in experiment [4] (HCT-116, read-out: GI50 NMS-P715, NvR1, p.M600T); 1.85 µM in experiment [4] (HCT-116, read-out: GI50 NMS-P715, NvR2, p.M600T); 2.25 µM in experiment [4] (HCT-116, read-out: GI50 NMS-P715, NvR4, p.M600T); 2.48 µM in experiment [4] (HCT-116, read-out: GI50 NMS-P715, NvR5, p.M600T); 2.32 µM in experiment [4] (HCT-116, read-out: GI50 NMS-P715, NvR6, p.M600T); 2.15 µM in experiment [5] (HCT-116, read-out: GI50 NMS-P715, NvR9, p.C604W). In addition, the GI50 amounted to 2.43 µM in experiment [5] (HCT-116, read-out: GI50 NMS-P715, NvR12, p.C604W); 4.25 µM in experiment [5] (HCT-116, read-out: GI50 NMS-P715, NvR13, p.C604W); 3.73 µM in experiment [5] (HCT-116, read-out: GI50 NMS-P715, NvR14, p.C604W); 3.82 µM in experiment [5] (HCT-116, read-out: GI50 NMS-P715, NvR15, p.C604W); 3.26 µM in experiment [5] (HCT-116, read-out: GI50 NMS-P715, NvR16, p.C604W); 3.76 µM in experiment [5] (HCT-116, read-out: GI50 NMS-P715, NvR17, p.C604W). The GI50 came to 3.76 µM in experiment [5] (HCT-116, read-out: GI50 NMS-P715, NvR18, p.C604W); 3.5 µM in experiment [5] (HCT-116, read-out: GI50 NMS-P715, NvR19, p.C604W); 3.86 µM in experiment [5] (HCT-116, read-out: GI50 NMS-P715, NvR20, p.C604W); 2.12 µM in experiment [5] (HCT-116, read-out: GI50 NMS-P715, NvR21, p.C604W); 2.2 µM in experiment [5] (HCT-116, read-out: GI50 NMS-P715, NvR22, p.C604W); 2.27 µM in experiment [5] (HCT-116, read-out: GI50 NMS-P715, NvR23, p.C604W). Also, the GI50 in experiment [5] (HCT-116, read-out: GI50 NMS-P715, NvR24, p.C604W) is 2.24 µM; in experiment [5] (HCT-116, read-out: GI50 NMS-P715, NvR25, p.C604W), 4.33 µM; in experiment [5] (HCT-116, read-out: GI50 NMS-P715, NvR26, p.C604W), 2.25 µM; in experiment [5] (HCT-116, read-out: GI50 NMS-P715, NvR29, p.C604W) it was 4.08 µM; in experiment [5] (HCT-116, read-out: GI50 NMS-P715, NvR30, p.C604W), 1.24 µM; in experiment [5] (HCT-116, read-out: GI50 NMS-P715, NvR34, p.C604W) it was 2.09 µM. Also, the 50% growth inhibitory concentration (GI50) in experiment [5] (HCT-116, read-out: GI50 NMS-P715, NvR35, p.C604W) worked out at 2.44 µM. Besides, in the experiment with parental HCT116 cells [3] (1 μM NMS-P715), the “mitotic exit (SAC override)” value is “rapidly exited mitosis”.
`Cn1cc(-c2ccc(Nc3ccc(C#N)c(NC4CCCCC4)n3)cc2OCC#N)cn1` [ONCOII]: the IC50 came to 2.6 ± 0.65 µM in experiment [6] (setting [8]), 8.3 ± 2.9 µM in experiment [6] (setting [9]), 0.0108 ± 0.0037 µM in experiment [7] (setting [8]) and 0.11 ± 0.018 µM in experiment [7] (setting [9]). The “fold resistance of recombinant p.C604W vs wild-type protein” value in experiment [6] (recombinant full-length MPS1 (Table 2)) is recorded as 75 fold. Moreover, the “resistance in cell viability assay vs parental” value in experiment [4] (p.M600T (NvR1)) is “able to confer resistance”. Further, the “Resistance conferred by mutation p.M600T” value in experiment [4] was “R”. Besides, in experiment [5], the “resistance / potency in cell viability assay vs parental” value is given as “able to confer resistance”. Moreover, the “Resistance conferred by mutation p.C604W” value in experiment [5] is “R”.
`CC(C)(C)Nc1nc(Nc2ccc(C(N)=O)cc2)cc(N)c1C#N` [SNG12]: in experiment [4], the “Resistance conferred by mutation p.M600T” value is reported as “R”. Moreover, the “Resistance conferred by mutation p.C604W” value in experiment [5] is given as “R”.

What is called GI50 is the concentration at which growth is held to half of that of the control. In general, IC50 refers to the concentration that inhibits the measured activity by half.

For the origin of these results see patent publication US20180112258A1, “MEDICAL USES AND METHODS FOR TREATING CANCER USING MONOPOLAR SPINDLE 1 (MPS1) KINASE INHIBITORS” (THE INSTITUTE OF CANCER RESEARCH: ROYAL CANCER HOSPITAL, priority 2015, published 2018).
